From patent US20100168033A1, “UNACYLATED GHRELIN AS THERAPEUTIC AGENT IN THE TREATMENT OF METABOLIC DISORDERS” (ALIZE PHARMA SAS, priority 2007, published 2010)
“Also recorded” adds a separate entry of the source. Read-outs that look alike come from different tables or passages of the source. No end group written: not given here.

Experiments:
[1] = system: HIT-T15 β-cells; experiment: Insulin secretion in HIT-T15 β-cells; format: cell-based, hamster; conditions: data not shown
Protocol: Insulin secretion—HIT-T15 cells were plated at density of 5×10^5 cells into 100-mm dishes and serum starved for 24 h before incubation for 1 h at 37° C. in HEPES-buffered Krebs-Ringer bicarbonate buffer (KRBH), containing 0.5% BSA with 1.25 mM glucose. The medium was changed and the cells were incubated again for 1 h in KRBH/0.5% BSA containing 1.25, 7.5 or 15 mM glucose. Following acid ethanol extraction of the hormone, secreted insulin was quantitated by a radioimmunoassay kit (Linco Research, Labodia, Yens, Switzerland) which recognizes human insulin and cross reacts with rat insulin.

[2] = system: human pancreatic islets; experiment: Insulin secretion in human pancreatic islets; format: cell-based; conditions: peptide 100 nM; glucose absent or 2 to 25 mM
Protocol: The effects of UAG (1-14) and UAG (1-18), both used at 100 nM, were investigated on insulin secretion in human islets. […] UAG (1-28) and Exendin-4 were used as positive controls (FIGS. 8C and 8D).

[3] = system: INS-1E β-cells; experiment: MTT cell survival assay in INS-1E β-cells; format: cell-based, rat; conditions: peptides 0.1 nM to 100 nM
Protocol: The peptides were tested at increasing concentrations, ranging from 0.1 nM to 100 nM.
(§1) Cell culture—Hamster HIT-T15 insulin-secreting β-cells were obtained and cultured as described (Refs. 14, 4). INS-1E rat β-cells were kindly provided by Prof. Claes B. Wollheim (University Medical Center, Geneva, Switzerland) and cultured as described (Refs. 14, 4). Cell culture reagents were from Invitrogen (Milano, Italy). Cytokines were from Biosource (Invitrogen, Italy).
(§2) Cell survival assay—Cell survival was assessed by 3-[4,5-dimethylthiazol-2-yl]-2,5 diphenyltetrazolium bromide (MTT) as described previously (Ref. 4). Cells were seeded on 96-well plates at a density of 5×10^3 cells/well. After treatments, cells were incubated with 1 mg/ml MTT for ≈1 h. The medium was aspirated, and the formazan product solubilized with 100 μl DMSO. Viability was assessed by spectrophotometry at 570 nm absorbance using a 96-well plate reader.

[4] = system: human pancreatic islets; experiment: MTT cell survival assay in human pancreatic islets; format: cell-based; conditions: 1 nM to 100 nM
Protocol: The survival effect of UAG (1-14), UAG (1-18), UAG (1-5) and UAG (17-28), with respect to that of full length UAG (1-28), was assessed in human pancreatic islets by MTT. The peptides were tested in islet cells cultured in serum deprived medium, either alone or with IFN-γ/TNF-α/IL-1β (5 ng/ml each).
Human islet isolation—Human islets were obtained from pancreases of multiorgan donors as described (Ref. 4). Islet preparations with purity >70%, not suitable for transplantation, were provided by European Consortium for Islet Transplantation (ECIT) “Islets for Research Distribution Program,” Transplant Unit, Scientific Institute San Raffaele, Vita-Salute University, Milan. Islets (10,000) were cultured in CMRL (Invitrogen) with 10% FBS.
as §2

[5] = system: UAG receptor on HIT-T15 pancreatic β-cells; experiment: [125I-Tyr4]-UAG competition binding, HIT-T15 membranes; set-up: species or system hamster; conditions: HIT-T15 cells
Protocol: (§3) The ability of the fragment UAG (6-13) to compete in a concentration-dependent manner with [^125I-Tyr^4]-UAG for HIT-T15 (FIG. 10A) and INS-1E (FIG. 10B) binding sites was assayed. As shown in FIGS. 10A and 10B, unlabelled UAG (1-28) and UAG (6-13) competed with a similar efficacy and in a concentration-dependent fashion with [^125I-Tyr^4]-UAG for such binding sites in both cell lines.
(§4) Binding assay—Membranes from hamster HIT-T15 and rat INS-1E to pancreatic β-cells were prepared and assayed for the presence of [^125I-Tyr^4]-UAG binding. The ability of UAG fragments to compete with the radioligand for such binding sites has been evaluated as previously described (Ref. 4). Data are presented as mean±S.E.M. of three independent experiments.

[6] = system: HIT-T15 β-cells; format: cell-based
Protocol: MTT experiments were also performed in hamster HIT-T15 β-cells, to test the survival effect of UAG (1-28) or its fragments UAG (1-14), UAG (1-18), UAG (1-5) and UAG (17-28) in serum deprived medium, either alone or with IFN-γ/TNF-α/IL-1β. As for the experiments performed on INS-1E β-cells, the peptides were tested at increasing concentrations, ranging from 0.1 nM to 100 nM.
The survival effect of UAG (6-13), UAG (8-13), UAG (8-12), UAG (8-11), UAG (9-12) and UAG (9-11) was assessed in cytokine-treated HIT-T15 β-cells.
The protective effects of peptides UAG (8-13) and UAG (8-12) were found similar to those of UAG (1-14) and UAG (1-18) A peptide made of the inverse sequence of UAG (1-14) and named UAG (14-1), was used as negative control for these experiments (FIG. 5A). […] These effects were however lower than those of UAG (6-13) (FIG. 5B).
UAG fragments with alanine (Ala) substitutions at different amino acid positions (6 to 13) were tested with regards to their survival effects in HIT-T15 hamster β-cells. The cells were cultured in serum deprived medium, either alone or with IFN-γ/TNF-α/IL-1β. The peptides were tested at the concentrations of 1 nM to 100 nM. […] Under treatment with cytokines, where cell survival was reduced by ≈18% with respect to serum starved conditions, all Ala substitutions, except those at positions 10 and 11, completely reversed cell death and brought the survival rate to levels that were even higher than those under serum-free conditions, at both 1 nM and 100 nM concentrations. These effects, were similar to those elicited by the original peptide UAG (6-13) (FIG. 11B).
Particularly, the best effect was exerted by Gly 6-UAG (6-13), whereas the lowest was seen using AcSer 6-UAG (6-13), AcSer 6-(D)Pro 7-UAG (6-13) (FIG. 12B).
as §1, §2

[7] = system: UAG receptor on INS-1E pancreatic β-cells; experiment: [125I-Tyr4]-UAG competition binding, INS-1E membranes; set-up: species or system rat; conditions: INS-1E cells
Protocol: as §3, §4

[8] = serum deprived medium with IFN-γ/TNF-α/IL-1β

Substance | glucose-induced insulin secretion [1] | insulin secretion [2] | cell survival (MTT) [3, 8] | cell survival (MTT) ([3]; serum-free medium) | cell survival (MTT) ([4]; serum deprived medium alone) | cell survival (MTT) ([4]; serum deprived medium with IFN-γ/TNF-α/IL-1β (5 ng/ml each)) | binding to the UAG receptor [5] | cell survival (MTT) ([6]; serum deprived medium alone) | cell survival (MTT) [6, 8] | binding to the UAG receptor [7]
GSSFLSPEHQRVQQ [UAG (1-14)] | significantly increased glucose-induced insulin secretion | significantly increased insulin secretion both in the absence and presence of glucose | more potent than full length UAG (1-28); also recorded: even stronger than native UAG | significant survival effect, comparable to that of UAG (1-28) | significantly increased cell survival in serum deprived medium at 10 nM and 100 nM | prevented cell death at 100 nM | recognized and bound to the UAG receptor | significantly increased cell viability | significantly increased cell viability | recognized and bound to the UAG receptor
exendin-4: positive control for insulin secretion, from Phoenix Pharmaceuticals [reference compound] | significantly increased glucose-induced insulin secretion | significantly increased insulin secretion both in the absence and presence of glucose |  |  |  |  |  |  |  | 
